Results from patent EP1257261B1, “ANTIVIRAL PHARMACEUTICAL COMPOSITIONS CONTAINING IRON CHELATORS” (Faculteit Geneeskunde Universiteit Utrecht, priority 1999, dated 2001).
Where two headings read alike, the source gives them in different places.

Assays:
HIV-1Ba-L [1] = experiment: Drug combination studies, p24 inhibition in HIV-infected PBL, median-effect / combination index (CalcuSyn); assay type: cell-based; settings: 5 days; for IC50: Human immunodeficiency virus 1, 120 h, read-out: IC50 (p24-antigen inhibition)
Protocol: Three separate experiments were performed substantially as described in the section HIV infection and p24 measurements. Multiply-diluted fixed-ratio combinations of the drugs, or single drugs were added to each incubation point. The IC50 (inhibitory concentration) of each drug was calculated using the computer software program CalcuSyn. The combined-drug effect was evaluated by the median-effect principle and the isobologram method. This method involves the plotting of the dose-effect curve for each drug alone and in combination. The slope of the median-effect plot and the x intercept of the plot were then used for the computerized calculation of a combination index (CI). The CI values were based on the classic isobologram equation and CI values of <1, 1 and >1 indicate synergism (greater than the expected additive effect), additive effects and antagonism (less than the expected additive effect). Fraction affected (fa) was calculated for every drug combination and for each drug alone after p24 measurements in infected PBL incubated for 5 days with the examined compounds (see HIV infection and p24 measurements).
CT < 1, = 1 and > 1 represent synergistic, additive and antagonistic effects, respectively. The subdivision within the synergistic area (CI >0.7, 0.3-0.7 and <0.3 implying moderate synergism, synergism, and strong synergism respectively) is according to Chou and Talalay. The parameters are obtained using the median effect equation of Chou and Talalay and the CalcuSync computer software programme as described in materials and methods.
Peripheral blood lymphocytes (PBL) were infected for 2 hours with HIV-1Ba-L at an MOI of 0.001. The cells were subsequently washed 2 times to remove an excess in virus and subsequently incubated for 5 days with only BLM, only ritonavir or various combinations of the two substances. Virus in the supernatant of the cell cultures was inactivated in a final concentration of 0.05% empigen and the presence of HIV-1 in the inactivated supernatant was measured by determining the p24 antigen with enzyme-linked immunosorbent assay (ELISA). […]

MDM = experiment: Cytotoxicity in MDM, MTT assay; assay type: cell-based, human; settings: 5 days
Protocol: (§1) Peripheral Blood Mononuclear Cell (PBMC) fractions were isolated from heparinized blood from HIV-1-, HIV-2- and hepatitis B-seronegative donors (Bloodbank, Utrecht, The Netherlands) by Ficoll-Isopaque gradient separation. Cells were washed twice and were then either subjected to counter-current centrifugal elutriation, or monocytes in the PBMC fraction were allowed to adhere to fibronectin-coated flasks before the PBL fraction was harvested. […] After PHA stimulation the PBL were cultured in medium containing 10 U/ml human recombinant IL-2 (Boehringer, Mannheim, Germany).
(§2) Possible cytotoxicity of DF, L1 or BLM was monitored by the MTT [3-(4,5 dimethylthiazol-2-yl)-2,5-diphenyltetrazolium bromide] (Sigma) assay.
(§3) For the HIV-1 replication measurements cells were infected for 2 hours with HIV-1Ba-L at an MOI of 0.001; the cells were subsequently washed 2 times and incubated with different compound concentrations. After 5 days supernatant was harvested for p24 ELISA; Virus replication was expressed as % p24 reduction after compound incubations, compared to p24 measured from control HIV-infected cells incubated in the absence of compounds (set at 100% p24). Cytotoxicity was measured by the MTT test and is represented as % viable cells after 5 days compound incubations, compared to viable cells from control HIV-infected cells incubated in the absence of compounds (set at 100% viable cells). Results are the average of 3 experiments in duplicate (statistical analysis using repeated ANOVA and student Newman-Keuls test, *p<0.05).

PBL [2] = experiment: Cytotoxicity in PBL, MTT assay; assay type: cell-based, human; settings: 5 days incubation
Protocol: as §1, §2
(§4) Results are the average of 3 experiments in duplicate (statistical analysis using repeated ANOVA and student Newman-Keuls test, *p<0.05).
as §4, §4

HIV-1Ba-L [3] = experiment: HIV-1 replication in MDM, p24 ELISA of culture supernatant; assay type: cell-based; settings: 5 days
Source text: (§5) Peripheral Blood Mononuclear Cell (PBMC) fractions were isolated from heparinized blood from HIV-1-, HIV-2- and hepatitis B-seronegative donors (Bloodbank, Utrecht, The Netherlands) by Ficoll-Isopaque gradient separation. Cells were washed twice and were then either subjected to counter-current centrifugal elutriation, or monocytes in the PBMC fraction were allowed to adhere to fibronectin-coated flasks before the PBL fraction was harvested. Monocytes were of >95% purity by criteria of cell morphology on May-Grunwald-Giemsa-stained cytosmears and by non-specific esterase staining using (α-naphthylacetate (Sigma Chemical Co., St. Louis, MO) and PBL >85% purity by May-Grunwald-Giemsa-staining. Viability of both cell types was >95% at the point of experiment initiation as determined by trypan-blue exclusion. Isolated monocytes were cultured in suspension at a concentration of 2 x 10^6 cells/ml in teflon flasks minimizing adherence (Nalgene, Rochester, NY) and allowed to differentiate for 7 days. MDM medium consisted of Dulbecco's modified Eagle's medium supplemented with 10% heat-inactivated human AB serum, negative for anti-HIV antibodies (Bloodbank Utrecht, NL), 10 µg/ml gentamycin (Life Technologies Ltd, Paisley, Scotland), 5 µg/ml ciprofloxacin (Beyer, Leverkusen, Germany), 0.6 mg/ml L-glutamine (Sigma) and 3.4 g/L bicarbonate (Merck, Darmstadt, Germany). Isolated PBL was stimulated to proliferate for 3 days with 4 µg/ml phytohemagglutinin (PHA; Sigma) in RPMI-1640 (Life Technologies Ltd.) medium supplemented with 10% heat inactivated fetal calf serum (Life Technologies Ltd.) and 10 µg/ml gentamycin. After PHA stimulation the PBL were cultured in medium containing 10 U/ml human recombinant IL-2 (Boehringer, Mannheim, Germany). All incubations were carried out in flat-bottomed 96-well plates at 37 °C, 5% CO2 and 95% air.
(§6) Cells were infected for 2 hours with HIV-1Ba-L. Macrophages were infected with a multiplicity of infection (MOI) of 0.005 and lymphocytes with an MOI of 0.001. The cells were then washed twice to remove excess virus and subsequently incubated with either DF (Novartis Pharma, Arnhem, The Netherlands), L1 (from Duchefa Farma B.V., Haarlem, The Netherlands) or BLM (H. Lundbeck A/S, Copenhagen, Denmark) for a period of 5 days. Virus in culture supernatant was inactivated in a final concentration of 0.05% empigen (Calbiochem-Novabiochem Co., La Jolla, CA). The presence of HIV-1 in the inactivated supernatant was monitored by checking for the p24-core antigen by enzyme-linked immunosorbent assay (ELISA).
as §3, with “*p<0.05). 100% p24 production represents 1.2 ng p24/ml.” for “*p<0.05).”

HIV-1Ba-L [4] = experiment: HIV-1 replication in PBL, p24 ELISA of culture supernatant; assay type: cell-based
Source text: as §5, §6
as §3, with “DF” for “compound”, “days, supenatant” for “days supernatant”, “ELISA.” for “ELISA;”, “DF” for “compounds”, “cells). PBL proliferation was measured by overnight ^3H-thymidine incorporation after DF was incubated for 4 days with cells; it is represented as counts per minute (cpm) after DF incubations, compared to cpm from control cells, incubated in the absence of DF.” for “cells).”, “*p<0.05). 100% p24 production represents 19 ng p24/ml” for “*p<0.05).”
For the HIV-I replication measurements cells were infected for 2 hours with HIV-1Ba-L at an MOI of 0.001; the cells were subsequently washed 2 times and incubated with different L1 concentrations. After 5 days, supernatant was harvested for p24 ELISA. […]

PBL [5] = experiment: Lymphocyte proliferation, overnight 3H-thymidine incorporation; assay type: cell-based, human; settings: concentrations studied, 4 days incubation then overnight 3H-TdR
Source text: as §5, with “Isolated PBL was stimulated to proliferate for 3 days with 4 µg/ml phytohemagglutinin (PHA; Sigma) in RPMI-1640 (Life Technologies Ltd.) medium supplemented with 10% heat inactivated fetal calf serum (Life Technologies Ltd.) and 10 µg/ml gentamycin. After PHA stimulation the PBL were cultured in medium containing 10 U/ml human recombinant IL-2 (Boehringer, Mannheim, Germany). All incubations were carried out in flat-bottomed 96-well plates at 37 °C, 5% CO2 and 95% air.” left out

[6] = single drug within the DF-ddI combination experiment
[7] = single drug within the BLM-ritonavir combination experiment
[8] = 300 ng BLM/ml, control 1.2 ng p24/ml

Compound: CC(=O)N(O)CCCCCNC(=O)CCC(=O)N(O)CCCCCNC(=O)CCC(=O)N(O)CCCCCN [DF, deferoxamine]
- IC50 (HIV-1Ba-L [1]; [6]): 8.5 µM
- cytotoxicity (cell viability, MTT) (MDM; concentrations around 100 µM): onset of cytotoxicity
- cytotoxicity (cell viability, MTT) (PBL [2]; 100 µM): cytotoxic
- inhibition at 100 µM (HIV-1Ba-L [3]; Human immunodeficiency virus 1, 120 h, concentrations around 100 µM, control 1.2 ng p24/ml, read-out: reduction of viral replication (p24)): ≤ 50%
- p24 level in culture supernatant (HIV-1Ba-L [3]; concentrations around 100 µM, control 1.2 ng p24/ml): 0.6 ng p24/ml
- p24 level in culture supernatant (HIV-1Ba-L [4]; 3 µM, 5 days, control 19 ng p24/ml): 11 ng p24/ml
- p24 level in culture supernatant (HIV-1Ba-L [4]; 30 µM, 5 days, n=3, control 19 ng p24/ml): 1.9 ng p24/ml
- inhibition at 3 µM (HIV-1Ba-L [4]; Human immunodeficiency virus 1, 120 h, 3 µM, 5 days incubation, n=3, p<0.05, control 19 ng p24/ml, read-out: reduction in viral replication (p24)): 40%
- inhibition at 30 µM (HIV-1Ba-L [4]; Human immunodeficiency virus 1, 120 h, 30 µM, 5 days, n=3, control 19 ng p24/ml, read-out: reduction of p24 levels): > 90%

Compound: bleomycin [BLM]
- cellular proliferation (3H-thymidine incorporation) (PBL [5]): remained intact
- IC50 (p24-antigen inhibition) (HIV-1Ba-L [1]; [7]): 1.9 µg/mL
- cytotoxicity (cell viability, MTT) (MDM; concentrations studied): not to affect cell viability
- cytotoxicity (cell viability, MTT) (PBL [2]; concentrations studied): not cytotoxic
- p24 level in culture supernatant (HIV-1Ba-L [3]; [8]): 0.6 ng p24/ml
- reduction of p24 levels (HIV-1Ba-L [3]; [8]): 50%
- reduction of HIV-1 replication (p24) (HIV-1Ba-L [4]; 3-300 ng BLM/ml, 5 days, n=3, control 19 ng p24/ml): 20-50%
- p24 level in culture supernatant (HIV-1Ba-L [4]; lower end of 3-300 ng BLM/ml range (20% reduction), n=3, control 19 ng p24/ml): 15 ng p24/ml
- p24 level in culture supernatant (HIV-1Ba-L [4]; upper end of 3-300 ng BLM/ml range (50% reduction), n=3, control 19 ng p24/ml): 9.5 ng p24/ml

Compound: O=c1[nH]cnc2c1ncn2[C@H]1CC[C@@H](CO)O1 [ddI, dideoxyinosine]
- IC50 (HIV-1Ba-L [1]; [6]): 3.7 µM

Compound: CC(C)c1nc(CN(C)C(=O)N[C@H](C(=O)N[C@@H](Cc2ccccc2)C[C@H](O)[C@H](Cc2ccccc2)NC(=O)OCc2cncs2)C(C)C)cs1 [ritonavir]
- IC50 (HIV-1Ba-L [1]; [7]): 0.04 µM

Compound: Cc1c(O)c(=O)ccn1C [L1, deferiprone]
- cellular proliferation (3H-thymidine incorporation) (PBL [5]): decrease in proliferation
- cytotoxicity (cell viability, MTT) (MDM; concentrations studied): not cytotoxic
- cytotoxicity (cell viability, MTT) (PBL [2]; 100 µM): not cytotoxic
- up-regulation of p24 antigen production (HIV-1Ba-L [3]; 30 µM): up to two fold
- HIV-1 replication (p24) (HIV-1Ba-L [4]; 100 µM, 5 days): reduced to minimal levels
- p24 antigen production (HIV-1Ba-L [4]; lower compound concentrations (below 100 µM), 5 days): subtle increase
